Experimental data: US10804000B2, “High efficiency continuous-flow production of radioisotopes” (priority 2016, dated 2020)

Assays:
[1] = Irradiation of ammonium molybdate phosphate powder, 99Mo activity in washes, target and capture matrix
From the text: Wash 1, Wash 2, and the irradiated molybdenum target were all analyzed for ^99Mo activity using gamma spectroscopy at the prominent ^99Mo peak of 141 KeV.
Post irradiation the capture matrix was separated from the irradiation target and washed an additional time to determine post irradiation solubility (wash 1).

[2] = Pre-irradiation solubility tests of lanthanide complexes in the water capture matrix (neutron activation analysis of washes); format: physicochemical; details: for % Activity in wash 1: first pre-irradiation wash with 0.5 mL ultra-pure H2O, 153Sm at 103 keV, 166Ho at 81 keV; for % Activity in wash 1 / % Activity in wash 2: indicates solubility in capture matrix; for solubility in water: in words, from pre-irradiation washes; for % Activity in wash 2: second pre-irradiation wash with H2O
Method: The solubility of the lanthanide complexes in the water capture matrix was determined by mixing a few milligrams of the lanthanide-containing target solid thoroughly with 0.5 mL of ultra-pure H2O then separating the solution from the solid utilizing centrifugal filter tubes (EMD Millipore). A second wash of the solid was obtained using the same procedure. The solid and the washes were submitted for neutron activation analysis in order to determine the solubility of the lanthanide containing target in H2O.
Post irradiation, the samples were left to cool for a predetermined amount of time to allow any short-lived radioisotopes to decay, before being transferred to the laboratory for treatment and analysis. The capture matrix was filtered and separated from the solid in order to separate any recoiled radiolanthanide. The solid residue and capture matrix were collected for analysis of the activity of the radiolanthanide. The pre-irradiation solubility test washes along with standards were also prepared for analysis. The samples were analyzed for radiolanthanide activity using a High Purity Germanium detector (HPGe) at the representative gamma energy of the radiolanthanide of interest.
All the samples for a particular compound were irradiated as a group, along with standards for calibration purposes and direct comparisons of activities. In samples that were not treated post irradiation by separation (e.g. as in the case of target and capture matrix) the activity of the radiolanthanide is directly related to the total concentration of the corresponding lanthanide. The count rate measured in each sample was normalized to a single point in time to account for decay during measurements. Both pre-irradiation washes were collected to give an indication of the solubility of the lanthanide complex in the capture matrix (H2O). The second wash was obtained to determine if the lanthanide activity detected in the first wash was actually due to solubility of the lanthanide containing target or due to factors such as impurities or the presence of uncomplexed lanthanide that came off in the first wash. […] Radiolanthanides that recoiled out but reformed bonds with the solid compound would appear as retained as well. […] Activity in the capture matrix may also reflect dissolution of the target matrix rather than recoil.

| Substance | % Activity in wash 1 [2] [%] | solubility in water [2] | % Activity in wash 2 [2] [%] | also measured |
| --- | --- | --- | --- | --- |
| ammonium molybdate phosphate [Sample 1] | – | – | – | % Activity in wash 1 ([1]; 99Mo, sample 1: powder irradiated 15 min at 8×10^11 n cm^−2 s^−1, contacted with water post irradiation): <1%; % Activity in wash 2 ([1]; 99Mo, sample 1: powder irradiated, contacted with water post irradiation): <1%; 99Mo activity detected in the capture matrix ([1]; sample 1, water contacted post irradiation): less than 1% |
| Samarium 4-aminobenzoate [Compound 2] | 27.3 ± 3.0 | soluble in water | 26.8 ± 2.9 | – |
| Holmium 8-hydroxyquinolinate [Compound 5] | – | low solubility in the first wash | – | – |
| ammonium molybdate phosphate [Sample 2] | – | – | – | % Activity in wash 1 ([1]; 99Mo, sample 2: irradiated in contact with water capture matrix, additional wash post irradiation): 1.3% |
| Samarium 8-hydroxyquinolinate [Compound 4] | – | low | – | – |
| Holmium 4-aminobenzoate [Compound 6] | 7.0 ± 1.6 | soluble in water | 7.7 ± 1.7 | – |
